From US20060069132A1, “Azolecarboxamide herbicides” (priority 2004, published 2006) come the findings set out here.

One assay concerns barnyardgrass. The assay is described as follows: Test A pre-/postemergence herbicide test. It is filed as in vivo, Echinochloa crus-galli. In outline: (§1)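 Seeds sown in sandy loam received a preemergence directed soil spray of compound in non-phytotoxic solvent with surfactant; postemergence plants (2–10 cm, one- to two-leaf stage) were sprayed to runoff at the same time. After ~10 days in greenhouse, injury was rated visually versus untreated controls (0 = no effect, 100 = complete control).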

In another assay the test system is large crabgrass. The experiment in a line: Test A pre-/postemergence herbicide test. It is filed as in vivo, Digitaria sanguinalis. Summed up:
as §1

A further assay relates to redroot pigweed. The experiment in a line: Test A pre-/postemergence herbicide test. Format: in vivo, Amaranthus retroflexus. Summed up:
as §1

Assay [1] has as its system smallflower umbrella sedge. The experiment in a line: Test C flooded paddy test. It is filed as in vivo, Cyperus difformis. The conditions noted are these: for Plant response rating, Sedge, Umbrella: visual rating after 12 to 14 days.
The mark [2] stands for this setting: Postemergence, 500 g ai/ha, 0 to 100 scale, 0 no effect, 100 complete control.
Where [3] appears, read: Postemergence, 2000 g ai/ha, 0 to 100 scale, 0 no effect, 100 complete control.
The mark [4] stands for this setting: Preemergence, 500 g ai/ha, visual rating, 0 to 100 scale (0 no effect, 100 complete control).
Where [5] appears, read: Preemergence, 2000 g ai/ha, visual rating, 0 to 100 scale (0 no effect, 100 complete control).
Setting [6] is: 62 g ai/ha, scale 0 to 100 (0 no effect, 100 complete control).
[7] abbreviates: 125 g ai/ha, scale 0 to 100 (0 no effect, 100 complete control).
Where [8] appears, read: 250 g ai/ha, scale of 0 to 100, 0 is no effect, 100 is complete control.
Where [9] appears, read: 500 g ai/ha, scale 0 to 100 (0 no effect, 100 complete control).
Setting [10] is: Postemergence, 125 g ai/ha, 0 to 100 scale, 0 no effect, 100 complete control.
Where [11] appears, read: preemergence, 125 g ai/ha, visual injury, 0 to 100 scale (0 no effect, 100 complete control).
Setting [12] is: 125 g ai/ha, scale of 0 to 100, 0 is no effect, 100 is complete control.
The mark [13] stands for this setting: Preemergence, 2000 g ai/ha, 0 to 100 scale, 0 no effect, 100 complete control.

On to `CCn1nc(C(C)(C)C)cc1C(=O)Nc1cccc(OCCCF)c1` [Compound 138], for which the “Barnyardgrass plant response rating” value came out at 15 with barnyardgrass (setting [2]), 30 in the assay with barnyardgrass (setting [4]) and 80 with barnyardgrass (setting [5]). In addition, the “Plant response rating, Barnyardgrass” value in the assay on barnyardgrass (setting [3]) came out at 30. Also, the “Crabgrass, Large plant response rating” value in the assay with large crabgrass (setting [2]) worked out at 20; in the assay on large crabgrass (setting [4]), 70; with large crabgrass (setting [5]), 90. In the assay on large crabgrass (setting [3]), the “Plant response rating, Crabgrass, Large” value worked out at 30. The “Pigweed plant response rating” value in the assay with redroot pigweed (setting [2]) is listed as 60; in the assay on redroot pigweed (setting [5]), 95; with redroot pigweed (preemergence, 500 g ai/ha, visual injury, 0 to 100 scale (0 no effect, 100 complete control)) it was 80. Further, the “Plant response rating, Pigweed” value in the assay on redroot pigweed (setting [3]) turned out to be 100. For the same compound, the results for the “Sedge, Umbrella plant response rating” value in assay [1] (setting [6]), in assay [1] (setting [7]) and in assay [1] (setting [8]) were 0, 40 and 75, respectively. Moreover, in assay [1] (setting [9]), the “Plant response rating, Sedge, Umbrella” value came out at 95.

On to `CCn1nc(C(C)(C)C)cc1C(=O)Nc1cccc(C(=O)NC(C)C)c1` [Compound 51], for which the “Barnyardgrass plant response rating” value in the assay on barnyardgrass (setting [10]) is 50; in the assay with barnyardgrass (setting [4]) it was 85; with barnyardgrass (setting [11]), 60. Further, in the assay on barnyardgrass (setting [2]), the “Plant response rating, Barnyardgrass” value was found to be 75. In addition, the “Crabgrass, Large plant response rating” value was determined as 30 with large crabgrass (setting [10]), 80 with large crabgrass (setting [4]) and 80 in the assay with large crabgrass (setting [11]). Moreover, in the assay with large crabgrass (setting [2]), the “Plant response rating, Crabgrass, Large” value came out at 30. For the same compound, the “Pigweed plant response rating” value worked out at 50 with redroot pigweed (setting [10]), 100 in the assay on redroot pigweed (setting [4]) and 100 with redroot pigweed (setting [11]). Further, the “Plant response rating, Pigweed” value in the assay with redroot pigweed (setting [2]) was 85. Besides, the “Sedge, Umbrella plant response rating” value was 45 in assay [1] (setting [6]), 50 in assay [1] (setting [12]) and 65 in assay [1] (setting [8]). The “Plant response rating, Sedge, Umbrella” value in assay [1] (setting [9]) stood at 80.

With `CCn1nc(C(C)(C)C)cc1C(=O)Nc1cccc(C(=O)NCCF)c1` [Compound 45], the “Plant response rating, Barnyardgrass” value in the assay on barnyardgrass (setting [2]) and in the assay on barnyardgrass (setting [3]) was 100 each time. In addition, the “Barnyardgrass plant response rating” value with barnyardgrass (setting [4]) stood at 80; in the assay on barnyardgrass (setting [13]), 95. Moreover, the “Plant response rating, Crabgrass, Large” value with large crabgrass (setting [2]) is recorded as 80; with large crabgrass (setting [3]) it was 90. In addition, the “Crabgrass, Large plant response rating” value is on record as 55 with large crabgrass (setting [4]) and 75 in the assay on large crabgrass (setting [13]). For the same compound, the “Plant response rating, Pigweed” value in the assay with redroot pigweed (setting [2]) and with redroot pigweed (setting [3]) was 100 each time. Moreover, the “Pigweed plant response rating” value turned out to be 95 in the assay with redroot pigweed (setting [4]) and 100 with redroot pigweed (setting [13]). In addition, the “Sedge, Umbrella plant response rating” value is 55 in assay [1] (setting [6]) and 60 in assay [1] (setting [12]). The “Plant response rating, Sedge, Umbrella” value in assay [1] (250 g ai/ha, scale 0 to 100 (0 no effect, 100 complete control)) amounted to 80; in assay [1] (setting [9]), 80.

With `CCn1nc(C(C)(C)C)cc1C(=O)Nc1cccc(OS(=O)(=O)CC)c1` [Compound 408], the “Sedge, Umbrella plant response rating” value is recorded as 60 in assay [1] (62 g ai/ha, scale 0 to 100); 80 in assay [1] (setting [7]); 85 in assay [1] (setting [8]). For the same compound, the “Plant response rating, Sedge, Umbrella” value in assay [1] (setting [9]) was determined as 85.

As for `CCn1nc(C(C)(C)C)cc1C(=O)Nc1cc(C(=O)NCC2CC2)ccn1` [Compound 155], the “Sedge, Umbrella plant response rating” value stood at 0 in assay [1] (setting [6]), 30 in assay [1] (setting [7]) and 65 in assay [1] (setting [8]). Moreover, in assay [1] (setting [9]), the “Plant response rating, Sedge, Umbrella” value is 75.
